The subject of the assay is CEM cells HIV-1 protection, formazan growth assay. Kind of assay: NCI AIDS Antiviral Assay. The conditions noted are these: for IC50: measured here: growth of uninfected CEM cells. An outline of the steps: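 Protection of CEM cells against HIV-1 was scored from cell growth (soluble formazan) across five concentrations, with parallel uninfected cells. Lack of protection may reflect toxicity.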

A word on the EC50: it is the midpoint of the concentration-response curve. Broadly, the IC50 is the concentration that gives 50% inhibition. Higher therefore signals weaker potency.

Calls of active or inactive are those of the source.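 How the source made its calls: active means compounds giving half or more protection of infected cells from virus-caused growth loss, again on retest; inactive means the rest.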 A value given as a limit tells only on which side of the number the result lay.

Turning to `CC1CN=C(N(C(=O)Nc2ccccc2)c2ccc(Cl)c(Cl)c2)S1` (configuration not stated), the EC50 is above 200 µM and the IC50 came out at 138 µM.

As for `CC1(C)C2CCC3(OCCO3)C1C(O)C2` (configuration not stated), the EC50 is above 427 µM and the IC50 is above 427 µM.

Turning to `CC(=O)N(CN1C(=O)CCC1C(=O)O)c1ccc(C)cc1` (configuration not stated), the result was inactive.

Consider `CC(C)(C)OC(=O)N1CCCC1C(=O)NC(c1ccccc1)c1ccccc1` (configuration not stated), for which the EC50 was above 200 µM and the IC50 was above 200 µM.

On to `CCOC(=O)c1c(NC(=S)Nc2ccc(Cl)cc2)sc2c1CCN(C)C2`, for which the EC50 was above 100 µM and the IC50 was above 100 µM.

For the molecule `CCCCCC/C=C\CCCCCCCCCc1cc(O)cc(OC)c1O`, the EC50 is above 13.8 µM and the IC50 turned out to be 5.01 µM.

For the molecule `O=[N+]([O-])c1ccccc1Sc1ccc(Cl)cc1`, the EC50 was above 135 µM and the IC50 turned out to be 38.9 µM.

For `COc1cc2c(cc1OC)CN1CCCc3cc(OC)c(OC)cc3C1C2` (configuration not stated), the EC50 is above 200 µM and the IC50 amounted to 32.4 µM.

For `CC1=C(/C=C/C(C)=C/C=C/C(C)=C/C(=O)O)C(C)(C)CCC1`, the outcome was inactive.

Turning to `O=[N+]([O-])c1cccnc1SSc1ncccc1[N+](=O)[O-]`, the EC50 was above 200 µM and the IC50 turned out to be 97.7 µM.

As to `CCCCN(CCCC)/N=C/c1c2c(O)c3c(O)c(C)c4c(c3c1O)C(=O)C(C)(O/C=C/C(OC)C(C)C(OC(C)=O)C(C)C(O)C(C)C(O)C(C)/C=C/C=C(C)C(=O)N2)O4` (configuration not stated), the EC50 is above 200 µM and the IC50 came to 9.12 µM.

As for `COc1cc2c(OC)c(-c3c(C)cc4c(C(C)C)c(OC)c(OC)cc4c3OC)c(C)cc2c(C(C)C)c1OC`, the result was inactive.

Take `CCCCCCCCCCCCCC1=C(O)C(=O)C(CC2=C(O)C(=O)C(CCCCCCCCCCCCC)=C(O)C2=O)=C(O)C1=O`: the EC50 was above 17 µM and the IC50 was above 17 µM.

Regarding `C[N+](C)=c1ccc2nc3c(ccc4ccccc43)oc-2c1`, the EC50 was above 60.3 µM and the IC50 turned out to be 8.32 µM.

As for `N#CC(=N)c1ncn(-c2ccc(N)cc2)c1N`, the EC50 is above 200 µM and the IC50 was 195 µM.

For `O=C(c1ccccc1)n1cc(-c2ccccc2)c2c(=O)[nH]cnc21`, the EC50 was above 200 µM and the IC50 is above 100 µM.

Turning to `Cc1csc2nc3[nH]ncc3c(=O)n12`, the EC50 is above 200 µM and the IC50 was 97.7 µM.

In the case of `Nc1ccc(-c2nc3sc(-c4ccc(N)cc4)nc3s2)cc1`, the EC50 was above 16.2 µM and the IC50 is above 16.2 µM.

As for `CN1C(=O)N(C)[C@@H]2CC(=O)c3ccc(C(F)(F)F)cc3N2C1=O`, the EC50 was above 288 µM and the IC50 is above 288 µM.

`O=C1/C(=C/c2ccccc2)CN(C(=O)/C=C/c2ccccc2)C/C1=C\c1ccccc1`: the EC50 was above 100 µM and the IC50 amounted to 14.5 µM.

`Clc1cccc(Cl)c1C1SCc2nc3cc4ccccc4cc3n21` (configuration not stated): the EC50 was above 200 µM and the IC50 was above 200 µM.

With `COc1c(I)c(OC)c2c(c1I)O[C@@H]1OCC[C@H]21`, the EC50 is above 501 µM and the IC50 turned out to be 240 µM.

Regarding `COc1cc(NC=O)c(OC)cc1Cl`, the outcome was inactive.

Turning to `N.N.N.N.[Co+3].[N-]=[N+]=[N-].[N-]=[N+]=[N-].[N-]=[N+]=[N-]`, the outcome was inactive.

For `CC(C)(C)c1cc(CCC(=O)Nc2ccc(Cl)cc2)[nH]c(=S)n1`, the EC50 was above 513 µM and the IC50 is above 513 µM.

`COc1ccc2c(c1)CCC/C2=N\NS(=O)(=O)c1c(C)cc(C)cc1C`: the EC50 was above 200 µM and the IC50 was 33.1 µM.

As for `COC(=O)c1cc(C(=Cc2c(F)c(F)c(F)c(F)c2F)c2cc(Cl)c(OC)c(C(=O)OC)c2)cc(Cl)c1OC`, the EC50 was above 17.4 µM and the half-inhibitory concentration (IC50) was above 17.4 µM.

Turning to `O=C1c2ccccc2C2C1N2C(=O)C(F)(F)F` (configuration not stated), the EC50 was above 148 µM and the IC50 was 24.5 µM.

For `O=Cc1cc2c(cc1-c1c(C=O)ccc3c1OCO3)OCO2`, the EC50 is above 63.1 µM and the IC50 worked out at 33.1 µM.

For `O=C1C(c2ccc(Br)cc2)=[N+]([O-])c2ccccc21`, the outcome was inactive.

Consider `Cc1ccnc2nc3[nH]c4ccccc4c3cc12`, for which the EC50 was above 126 µM and the IC50 was above 126 µM.

On to `O=C1C=C(Nc2ccc(S(=O)(=O)Nc3nccs3)cc2)c2ccccc2C1=O`, for which the EC50 was above 316 µM and the IC50 worked out at 38.9 µM.

`Cc1cc(=O)[nH]c(NNC(C#N)c2cccc([N+](=O)[O-])c2)n1` (configuration not stated): the EC50 was above 45.7 µM and the IC50 is above 45.7 µM.

`CCOC(=O)/C(C#N)=C/c1cccc([N+](=O)[O-])c1`: the EC50 was above 21.4 µM and the IC50 was above 21.4 µM.

Regarding `N#Cc1c(N2CCOCC2)ncn(-c2ccc(Cl)cc2)c1=O`, the EC50 was above 200 µM and the IC50 is above 200 µM.

As to `c1nncn1C12C3C4C5C3C1C5C42` (configuration not stated), the EC50 is above 200 µM and the IC50 is above 200 µM.

Take `Cc1cn(C2CCC(CO)(CO)CC2O)c(=O)[nH]c1=O` (configuration not stated): the EC50 is above 871 µM and the IC50 is above 871 µM.

Regarding `Cc1cc2c(C(C)C)c(O)c(O)c(C=Nc3ccc(Cl)cc3)c2c(O)c1-c1c(C)cc2c(C(C)C)c(O)c(O)c(C=Nc3ccc(Cl)cc3)c2c1O`, the EC50 is above 200 µM and the IC50 worked out at 11.7 µM.

As to `NS(=O)(=O)c1ccc(NC(=O)c2cccc3c(Nc4ccc(S(N)(=O)=O)cc4)c4ccccc4nc23)cc1`, the EC50 is above 34.7 µM and the IC50 came out at 26.3 µM.

Regarding `CC(=O)N1CN2C(=O)CCC2c2cc(C)ccc21` (configuration not stated), the outcome was inactive.

Take `CCCNC(C#N)c1ccc(OCCCCCCCCCCOc2ccc(C(C#N)NCCC)cc2)cc1` (configuration not stated): the EC50 is above 200 µM and the IC50 was 11 µM.

For the molecule `O=C1CCN2CCC(=O)c3c2c(cc2ccccc32)N1`, the EC50 is above 26.9 µM and the IC50 is above 26.9 µM.

On to `CO/N=C(/C(=O)N(C(=O)/C(=N/OC)c1csc(NC(c2ccccc2)(c2ccccc2)c2ccccc2)n1)n1cnn(CC(=O)OC(C)(C)C)c1=O)c1csc(NC(c2ccccc2)(c2ccccc2)c2ccccc2)n1`, for which the EC50 was above 200 µM and the IC50 was found to be 174 µM.

`O=S(=O)(c1ccccc1)N1CC2C3C=CC(C3)C2C1` (configuration not stated): the EC50 is above 200 µM and the IC50 was found to be 145 µM.

Regarding `COc1cc2c(cc1O)CN1Cc3c(ccc(OC)c3O)C2C1` (configuration not stated), the EC50 is above 282 µM and the 50% inhibitory concentration (IC50) turned out to be 251 µM.

As for `COc1ccc2c(c1)OC1(OCCO1)[C@@H]1C2CC[C@@]2(C)C1CCC21OCCO1` (some centres not stated), the EC50 was above 18.6 µM and the IC50 was above 18.6 µM.

Regarding `O=c1[nH]c(NCCCCCO)nc2nc[nH]c12`, the EC50 is above 200 µM and the IC50 is above 200 µM.

As for `CC(C)(C)COc1ccc2c(c1)-c1nc-2nc2[nH]c(nc3nc(nc4[nH]c(n1)c1ccc(OCC(C)(C)C)cc41)-c1cc(OCC(C)(C)C)ccc1-3)c1ccc(OCC(C)(C)C)cc21`, the EC50 was above 8.32 µM and the IC50 was above 8.32 µM.

Consider `N#C/C(c1nc2ccccc2[nH]1)=c1\s/c(=C/c2ccccc2)c(=O)n1-c1ccccc1`, for which the EC50 was above 200 µM and the IC50 was above 200 µM.

As for `c1ccc2nc3cc4c(cc3nc2c1)NC12CCCCC1CC1=C(CCCC1)N42` (configuration not stated), the EC50 is above 200 µM and the IC50 is 3.24 µM.

As for `CC(=O)O/C(=C(/C#N)C(=O)O)C1C(C(=O)O)C(c2ccccc2[N+](=O)[O-])C=C(c2ccco2)N1c1ccncc1` (configuration not stated), the EC50 was above 20 µM and the IC50 was determined as 2.4 µM.

Consider `CCC(=O)OC1CCC2C3CCC(=O)OC3C(C)(CCC(=O)O)CC12C` (configuration not stated), for which the EC50 was above 200 µM and the IC50 was 1.91 µM.

For `CC1=NN(C2=NS(=O)(=O)c3ccccc3N2C)C(=O)C1`, the EC50 was above 123 µM and the IC50 is above 123 µM.

Take `CNC(=O)[C@H](Cc1ccccc1)NC(=O)N(CCC#N)CCN(C(=O)N[C@@H](Cc1ccccc1)C(=O)OC)c1ccccc1`: the EC50 was above 200 µM and the IC50 is above 200 µM.

Consider `Cc1cc(-c2ccc(N=Nc3c(S(=O)(=O)O)cc4cc(S(=O)(=O)O)cc(N)c4c3O)c(C)c2)ccc1N=Nc1cc(S(=O)(=O)O)c2ccccc2c1O`, for which the outcome was inactive.

On to `CC1(C)OC(=O)C(C)(C)OC1=O`, for which the EC50 was above 200 µM and the IC50 was above 200 µM.

Consider `COC(=O)NN=C1C(C)(C)C(=O)C1(C)C`, for which the EC50 is above 85.1 µM and the IC50 is above 85.1 µM.

Regarding `COc1ccccc1/C=C1\Sc2scc(-c3ccc(O)c(O)c3)[n+]2C1=O`, the EC50 is above 200 µM and the IC50 is 3.89 µM.

As to `C[C@@H]1OC(=O)N2CCCC(=C3SCCCS3)C12` (some centres not stated), the outcome was inactive.

Turning to `C[C@]12CC[C@H](O)CC1CC[C@@H]1C2CC[C@]2(C)NC(=O)CCC12` (some centres not stated), the result was inactive.

On to `COC1/C=C/OC2(C)Oc3c(C)c(O)c4c(O)c(c(/C=N/N(C)C5OC(COC(=O)c6ccccc6)C(OC(=O)c6ccccc6)C5OC(=O)c5ccccc5)c(O)c4c3C2=O)NC(=O)C(C)=C/C=C/C(C)C(O)C(C)C(O)C(C)C(OC(C)=O)C1C` (configuration not stated), for which the EC50 is above 200 µM and the IC50 came out at 10 µM.

Consider `Nc1ncnc2c1ccn2C/C=C\CO`, for which the EC50 was above 200 µM and the IC50 is above 200 µM.

As to `CN1c2ccccc2N(C(=O)c2ccc(Cl)cc2)C(CC(=O)O)c2cccn21` (configuration not stated), the EC50 is above 631 µM and the IC50 was determined as 117 µM.

In the case of `O=C1C(=O)C(c2ccccc2)S(=O)(=O)C1c1ccccc1` (configuration not stated), the outcome was inactive.

Regarding `Nn1c(N=Nc2c(O)[nH]c3ccccc23)n[nH]c1=S`, the EC50 is above 33.9 µM and the concentration for half-maximal inhibition (IC50) is above 33.9 µM.

`Cc1cccc(N2C(=O)C3c4[nH]c5ccccc5c4C4CCC(C(C)(C)C)CC4C3C2=O)c1C` (configuration not stated): the EC50 was above 200 µM and the IC50 came to 22.9 µM.

For the molecule `CCN(CC)C1C2=C(CCCC2)OS(=O)(=O)C1c1ccccc1` (configuration not stated), the EC50 was above 40.7 µM and the IC50 is above 40.7 µM.

As for `C/C(=N\N=C(N)N)C(CN1CCCCC1)C(c1ccccc1)c1c(O)c2ccccc2oc1=O` (configuration not stated), the EC50 is above 52.5 µM and the IC50 was above 52.5 µM.

With `CCOC(=O)CC(=O)C(=O)NNC1=NCCCN1`, the EC50 is above 200 µM and the IC50 is above 200 µM.

These data come from PubChem BioAssay AID179 (DTP/NCI, 2004).
